Paper PMC7645366 (EMBO Molecular Medicine, 2020)
No end group written: not given here.

How the values were obtained:
PLY [1] = molecular target: T1, PLY (Streptococcus pneumoniae serotype 4, UniProt P0C2J9); assay type: cell-based
PLY [2] = molecular target: T1, PLY; assay type: cell-based; remark: listed apart in the source
SLO [3] = molecular target: T2, SLO (Streptococcus pyogenes serotype M1, UniProt P0C0I3); assay type: cell-based
S. pyogenes type M1T1 = experiment: Co-localization of intracellular S. pyogenes with MRC-1 and LC3B in DCs; assay type: cell-based, Streptococcus pyogenes; details: 100 μM peptide
S. pneumoniae T4 [4] = experiment: Zebrafish embryo infection model, survival; assay type: in vivo, zebrafish (Danio renio); details: 500 CFU T4 microinjected into yolk sac, co-administration 1 nM
Protocol: The AB strain of zebrafish embryos (Danio renio) was collected within first hours post‐fertilization (hpf) from the zebrafish core facility at Karolinska Institutet, Stockholm, and maintained at 28.5°C in E3 medium (5.0 mM NaCl, 0.17 mM KCl, 0.33 mM CaCl2, 0.33 mM MgSO4). […] Microinjection was done using a glass needle (Harvard apparatus, Quebec, Canada) controlled with a micromanipulator Narishige MN‐153 (Narishige International Limited, London, UK) connected to an Eppendorf FemtoJet express (Eppendorf AG, Hamburg, Germany). The injected volume was previously optimized by injecting of a droplet into mineral oil over a scale bar. The embryos were randomly assigned to the treatment groups and a minimum of 156 embryos/group was used. To determine the actual number of bacteria in the injected volume, one drop was collected into the agar plates, and 1–3 embryos were digested and plated just immediately after injection. The infected embryos were incubated at 30°C for 96 h. The infected embryos were monitored for disease symptoms and survival under a stereomicroscope twice a day up to 4 days post‐injection. Absence of heartbeat and movement was interpreted as a sign of death. All experiments were performed thrice.

PLY [5] = molecular target: T1, PLY; assay type: cell-based; remark: listed apart in the source
SLO [6] = molecular target: T2, SLO; assay type: binding
PLY [7] = molecular target: T1, PLY; assay type: binding
S. pneumoniae T4 [8] = experiment: Mouse intranasal infection (pneumonia) model: survival, lung bacterial load, lung cytokines
Protocol: Six‐week‐old male C57BL/6 wild‐type mice were used (Charles River, Germany). The study included 10 mice/individual group which were randomly assigned to the different treatment groups. Sample size calculations were determined according to previous experience (Subramanian et al, 2019b). […] The mice were checked at least twice every day; morning at 9 am (referred as “early check”) and evening at 7 pm (referred as “late check”). Post‐mortem, lungs were collected and washed in PBS and homogenized by passing through the 100‐μm cell strainer. Bacterial counts were determined from lung homogenates by viable count on blood agar plates. Aliquots of lung homogenates were frozen at −80°C for cytokine quantification by ELISA.
The levels of TNF‐α, IL‐8, and IL‐12 (p70) in the culture supernatants and mouse lung tissue were analyzed using the OptEIA ELISA kit (BD Biosciences) following the manufacturer's instructions.

LLO = LLO (Listeria monocytogenes serovar 1/2a, UniProt P13128); experiment: Cytokine ELISA, THP-1 macrophages stimulated with LLO; assay type: cell-based; details: 18 h; for IL-8 levels in THP-1 macrophages: LLO 0.5 μg/ml, 100uM
Protocol: Human monocytic leukemia THP‐1 cells (ATCC TIB‐202) were cultivated in R10 medium and maintained at density of 10^6 cells/ml. For differentiation into macrophages, THP‐1 cells were treated for 48 h with 20 ng/ml of phorbol myristate acetate (Sigma).

BSA = experiment: ELISA, binding of plate-bound MRC-1 peptides to BSA (negative control); details: plate-bound peptide
Protocol: Briefly, 96‐well flat‐bottomed plates (Sigma, UK) were coated overnight with 10 μM of MRC‐1 peptides in coating buffer (15 mM Na2CO3, 35 mM NaHCO3, pH 9.6). Wells were blocked with 200 μl of 10% (v/v) FBS in PBS for 2 h and then washed three times with PBS, 0.05% (v/v) Tween 20 (Sigma). 50 μl of purified PLY, LLO, and SLO (0–1 μM) in PBS was added and incubated at 37°C for 1 h. 1 μM BSA was added to control wells. Wells were washed with PBS and bound proteins were detected by adding 100 μl of mouse α‐PLY (1:1,000), mouse α‐SLO (1:400), and rabbit α‐LLO (1:1,500) (Abcam), respectively, in blocking buffer. Plates were incubated with 100 μl of secondary anti‐rabbit/anti‐mouse IgG HRP (1:2,000) dilution in blocking buffer. Bound antibodies were detected by adding 100 μl of tetramethylbenzidine substrate solution for 30 min. Phosphoric acid (1 M) was used as the stop solution and absorbance was measured at 450 nm.

T1 sequence (P0C2J9 whole entry, looked up): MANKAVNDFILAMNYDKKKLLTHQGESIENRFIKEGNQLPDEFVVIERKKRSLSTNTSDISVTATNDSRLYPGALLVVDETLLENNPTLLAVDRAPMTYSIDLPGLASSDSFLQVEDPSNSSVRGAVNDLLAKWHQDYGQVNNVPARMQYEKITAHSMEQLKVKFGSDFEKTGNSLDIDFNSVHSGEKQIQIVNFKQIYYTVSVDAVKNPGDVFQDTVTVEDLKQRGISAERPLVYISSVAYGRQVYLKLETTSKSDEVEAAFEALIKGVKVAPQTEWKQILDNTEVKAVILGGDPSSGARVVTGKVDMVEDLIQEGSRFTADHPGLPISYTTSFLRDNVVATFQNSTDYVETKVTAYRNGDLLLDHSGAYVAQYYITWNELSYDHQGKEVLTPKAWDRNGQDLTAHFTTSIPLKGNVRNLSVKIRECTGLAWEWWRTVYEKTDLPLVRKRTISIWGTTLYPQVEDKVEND
T2 sequence (P0C0I3 34-571 limits assumed): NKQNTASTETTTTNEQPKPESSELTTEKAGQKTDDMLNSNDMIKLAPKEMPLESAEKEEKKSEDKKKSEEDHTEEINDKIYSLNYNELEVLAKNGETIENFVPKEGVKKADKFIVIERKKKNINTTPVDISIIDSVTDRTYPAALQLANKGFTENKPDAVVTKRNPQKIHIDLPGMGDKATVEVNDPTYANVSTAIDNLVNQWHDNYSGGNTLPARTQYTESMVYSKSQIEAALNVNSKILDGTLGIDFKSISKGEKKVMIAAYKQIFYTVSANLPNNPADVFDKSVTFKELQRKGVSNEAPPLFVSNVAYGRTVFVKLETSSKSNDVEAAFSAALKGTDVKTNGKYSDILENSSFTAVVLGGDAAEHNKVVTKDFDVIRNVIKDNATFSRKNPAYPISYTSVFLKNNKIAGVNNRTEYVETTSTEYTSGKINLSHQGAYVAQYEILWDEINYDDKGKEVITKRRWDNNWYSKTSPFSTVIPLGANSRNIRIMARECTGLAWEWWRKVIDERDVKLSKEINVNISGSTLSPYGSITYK
LLO, sequence (P13128 25-529): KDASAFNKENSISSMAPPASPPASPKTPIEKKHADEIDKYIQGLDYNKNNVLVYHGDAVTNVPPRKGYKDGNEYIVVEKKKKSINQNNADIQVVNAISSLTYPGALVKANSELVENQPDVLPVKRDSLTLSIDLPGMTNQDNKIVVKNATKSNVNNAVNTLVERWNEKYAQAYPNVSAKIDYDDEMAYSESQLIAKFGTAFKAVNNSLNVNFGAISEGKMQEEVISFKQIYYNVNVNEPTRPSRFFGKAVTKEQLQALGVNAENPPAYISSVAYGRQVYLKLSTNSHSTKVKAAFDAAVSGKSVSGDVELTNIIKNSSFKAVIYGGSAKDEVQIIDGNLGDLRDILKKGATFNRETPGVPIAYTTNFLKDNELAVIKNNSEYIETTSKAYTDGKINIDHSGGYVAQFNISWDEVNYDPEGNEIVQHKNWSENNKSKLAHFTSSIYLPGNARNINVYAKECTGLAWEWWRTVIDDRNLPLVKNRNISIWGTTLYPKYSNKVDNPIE

## FTWSDGSPVSYEN [P2]
PLY [1]
  release of IL‐8, TNF‐α and IL‐12 by THP-1 macrophages, PLY: significantly reduced
PLY [2]
  inhibition of PLY-induced hemolysis: up to 50%
  inhibition of hemolysis induced by purified PLY: up to 50%
PLY [2]; read-out: ED50 (median effective dose) vs purified PLY, human, blood, 60 min
  IC50: 6.6 µM
SLO [3]
  inhibition of hemolysis induced by purified SLO: up to 50%
SLO [3]; read-out: ED50 (median effective dose) vs purified SLO, human, blood, 60 min
  IC50: 9.8 µM
S. pyogenes type M1T1
  co-staining of intracellular S. pyogenes M1T1 with LC3B: co‐stained with LC3B
S. pneumoniae T4 [4]
  survival of infected zebrafish embryos: significantly improved the survival
PLY [5]
  release of IL‐8 and TNF‐α in lung tissue model: significantly reduced release
SLO [6]
  binding to SLO in ELISA: bound dose‐dependently
PLY [7]
  binding to PLY in ELISA: bind dose‐dependently
S. pneumoniae T4 [8]; Mouse 1 of its group
  Mouse survival, death recorded: 1
S. pneumoniae T4 [8]; Mouse 1 of its group, intranasal 2 × 10^6 CFU T4 with 5 μg peptide/mouse (25 μg CaP NPs)
  Mouse survival, Time (coded): 4
S. pneumoniae T4 [8]; Mouse 2 of its group
  CFU/ml in mouse lung homogenates: 160000000 CFU/ml
  Mouse survival, Time (coded): 4
  Mouse survival, death recorded: 1
S. pneumoniae T4 [8]; Mouse 3 of its group
  CFU/ml in mouse lung homogenates: 160000000 CFU/ml
  Mouse survival, Time (coded): 5
  Mouse survival, death recorded: 1
S. pneumoniae T4 [8]; Mouse 4 of its group
  CFU/ml in mouse lung homogenates: 180000000 CFU/ml
  Mouse survival, Time (coded): 6
  Mouse survival, death recorded: 0
S. pneumoniae T4 [8]; Mouse 5 of its group
  CFU/ml in mouse lung homogenates: 100000000 CFU/ml
  Mouse survival, Time (coded): 4
  Mouse survival, death recorded: 1
S. pneumoniae T4 [8]; Mouse 6 of its group
  CFU/ml in mouse lung homogenates: 2.6E+07 CFU/ml
  Mouse survival, Time (coded): 4
  Mouse survival, death recorded: 1
S. pneumoniae T4 [8]; Mouse 7 of its group
  CFU/ml in mouse lung homogenates: 2.5E+07 CFU/ml
  Mouse survival, Time (coded): 4
  Mouse survival, death recorded: 1
S. pneumoniae T4 [8]; Mouse 8 of its group
  CFU/ml in mouse lung homogenates: 1.7E+07 CFU/ml
  Mouse survival, Time (coded): 4
  Mouse survival, death recorded: 1
S. pneumoniae T4 [8]; Mouse 9 of its group
  CFU/ml in mouse lung homogenates: 1.7E+07 CFU/ml
  Mouse survival, Time (coded): 4
  Mouse survival, death recorded: 1
S. pneumoniae T4 [8]; Mouse 10 of its group
  CFU/ml in mouse lung homogenates: 1.0E+07 CFU/ml
  Mouse survival, Time (coded): 5
  Mouse survival, death recorded: 1
S. pneumoniae T4 [8]; animal in data line 1
  IL-12 levels in mouse lung homogenates: 4502.5 pg/mL
S. pneumoniae T4 [8]; animal in data line 2
  IL-12 levels in mouse lung homogenates: 3606.25 pg/mL
  TNF-a levels in lung: 645.91 pg/mL
S. pneumoniae T4 [8]; animal in data line 3
  IL-12 levels in mouse lung homogenates: 5321.25 pg/mL
  TNF-a levels in lung: 377.50 pg/mL
S. pneumoniae T4 [8]; animal in data line 4
  IL-12 levels in mouse lung homogenates: 8600 pg/mL
  TNF-a levels in lung: 853.64 pg/mL
S. pneumoniae T4 [8]; animal in data line 5
  IL-12 levels in mouse lung homogenates: 7346.25 pg/mL
  TNF-a levels in lung: 703.86 pg/mL
S. pneumoniae T4 [8]; animal in data line 6
  IL-12 levels in mouse lung homogenates: 6002.5 pg/mL
  TNF-a levels in lung: 679.08 pg/mL
S. pneumoniae T4 [8]; animal in data line 7
  IL-12 levels in mouse lung homogenates: 5505 pg/mL
  TNF-a levels in lung: 828.95 pg/mL
S. pneumoniae T4 [8]; animal in data line 8
  IL-12 levels in mouse lung homogenates: 3275 pg/mL
  TNF-a levels in lung: 612.89 pg/mL
S. pneumoniae T4 [8]; animal in data line 9
  IL-12 levels in mouse lung homogenates: 4967.5 pg/mL
  TNF-a levels in lung: 782.63 pg/mL
S. pneumoniae T4 [8]; animal in data line 10
  IL-12 levels in mouse lung homogenates: 8335 pg/mL
  TNF-a levels in lung: 757.37 pg/mL
S. pneumoniae T4 [8]; infected mice
  levels of TNF‐α and IL‐12 in the lung tissue: significantly reduced
S. pneumoniae T4 [8]; infected mice, post‐sacrifice, animal in data line 1
  TNF-a levels in lung: 263.18 pg/mL
S. pneumoniae T4 [8]; intranasal T4 2 × 10^6 CFUs, 5 μg peptide/mouse
  mouse survival: prolonged survival
S. pneumoniae T4 [8]; post‐mortem, Mouse 1 of its group
  CFU/ml in mouse lung homogenates: 160000000 CFU/ml
LLO; 0.5 μg/ml toxin, 100 μM peptide
  release of IL‐8, TNF‐α and IL‐12 by THP-1 macrophages, LLO: significantly reduced
LLO; experiment 1 of 3
  IL-8 levels in THP-1 macrophages: 437.8 pg/mL
LLO; experiment 2 of 3
  IL-8 levels in THP-1 macrophages: 441.8 pg/mL
LLO; experiment 3 of 3
  IL-8 levels in THP-1 macrophages: 448.5 pg/mL
BSA
  binding to BSA in ELISA: not to BSA
